According to the supplement of paper PMC8671470:

How the values were obtained:
Conditions in all cases: 72 h
ML-2 [1] = tested on: ML-2
Procedure, shortened: (§1)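 For the IC50, dose–response curves were fitted with a log-logistic model. The data came from fifteen myeloid leukaemia cell lines grown in RPMI 1640 at densities in the linear growth range and incubated in 384-well plates for 72 h at 37 °C under 5% CO2. Doses were five tenfold steps from 1 to 10,000 nM in duplicate, and luminescent ATP viability was normalised to vehicle and to a positive control at 10 µM before four-parameter fitting.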

K-562 [2] = tested on: K-562
Procedure, shortened: as §1

THP-1 = tested on: THP-1
Procedure, shortened: as §1

Mono-Mac-6 [3] = tested on: Mono-Mac-6
Procedure, shortened: as §1

HEL [4] = tested on: HEL
Procedure, shortened: as §1

NOMO-1 = tested on: NOMO-1
Procedure, shortened: as §1

HL-60 [5] = tested on: HL-60
Procedure, shortened: as §1

LAMA-84 [6] = tested on: LAMA-84
Procedure, shortened: as §1

KCL-22 [7] = tested on: KCL-22
Procedure, shortened: as §1

KG-1 [8] = tested on: KG-1
Procedure, shortened: as §1

SHI-1 [9] = tested on: SHI-1
Procedure, shortened: as §1

MOLM-13 = tested on: MOLM-13
Procedure, shortened: as §1

MV4-11 [10] = tested on: MV4-11
Procedure, shortened: as §1

KU-812 = tested on: KU-812
Procedure, shortened: as §1

BV-173 [11] = tested on: BV-173
Procedure, shortened: as §1

HL-60 [12] = experiment: cell viability (% survival relative to DMSO control); higher = less cytotoxic
Procedure, shortened: (§2)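 For each screen, HL-60 cells in RPMI 1640 with 10% FBS carried either DMSO or 100 nM of one of three metabolic inhibitors while the full library was applied at five tenfold concentrations, 1–10,000 nM, in duplicate. Plates were 384-well and were kept 72 h at 37 °C, 5% CO2. Viability, measured by CellTiter-Glo, was normalised to wells with DMSO and with 10 μM proteasome inhibitor. Where area under the curve appears, it was fitted by four-parameter log-logistic models in drc and PharmacoGx.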

HL-60 [13] = experiment: area under dose-response curve (viability, 1 nM-10 uM) (fraction (0-1)); higher = more sensitive
Procedure, shortened: as §2

ML-2 [14] = experiment: cell viability (% survival relative to DMSO control, bortezomib = 0%); higher = less cytotoxic
Procedure, shortened: (§3)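 Percent survival figures are means of duplicate wells. They were obtained by CellTiter-Glo luminescence after 10 AML and 5 CML cell lines spent 72 h at 37 °C with 5% CO2 in 384-well plates with compounds at 1, 10, 100, 1000 or 10000 nM. Vehicle was set to 100% and a 10 µM positive control to 0%.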

K-562 [15] = experiment: as above
Procedure, shortened: as §3

Mono-Mac-6 [16] = experiment: as above
Procedure, shortened: as §3

HEL [17] = experiment: as above
Procedure, shortened: as §3

HL-60 [18] = experiment: as above
Procedure, shortened: as §3

LAMA-84 [19] = experiment: as above
Procedure, shortened: as §3

KCL-22 [20] = experiment: as above
Procedure, shortened: as §3

KG-1 [21] = experiment: as above
Procedure, shortened: as §3

SHI-1 [22] = experiment: as above
Procedure, shortened: as §3

MV4-11 [23] = experiment: as above
Procedure, shortened: as §3

BV-173 [24] = experiment: as above
Procedure, shortened: as §3

COc1ccc2c(c1)c(CC(=O)O)c(C)n2C(=O)c1ccc(Cl)cc1 [Indomethacine]
Conditions | IC50 (cell viability) [µM]
BV-173 [11] | > 10
HEL [4] | > 10
HL-60 [5] | > 10
K-562 [2] | > 10
KCL-22 [7] | > 10
KG-1 [8] | > 10
KU-812 | > 10
LAMA-84 [6] | > 10
ML-2 [1] | > 10
MOLM-13 | > 10
MV4-11 [10] | > 10
Mono-Mac-6 [3] | > 10
NOMO-1 | > 10
SHI-1 [9] | > 10
THP-1 | > 10

cell viability [%], HL-60 [12]
Conditions | 0.001 µM | 0.01 µM | 0.1 µM | 1 µM | 10 µM
co-treatment: AZD3965 100 nM | 94.5 | 76.1 | 100 | 103 | 91.6
co-treatment: DMSO vehicle | 93.22 | 91 | 97.19 | 101 | 100
co-treatment: GSK2194069 100 nM | 88 | 95.9 | 97.61 | 99.8 | 89.1
co-treatment: pictilisib 100 nM | 90.7 | 87.2 | 93.2 | 97.1 | 88.4

Conditions | area under dose-response curve, co-treatment: AZD3965 100 nM | area under dose-response curve, co-treatment: DMSO vehicle | area under dose-response curve, co-treatment: GSK2194069 100 nM | area under dose-response curve, co-treatment: pictilisib 100 nM | cell viability, 1 nM [%] | cell viability, 10 nM [%] | cell viability, 100 nM [%] | cell viability, 1000 nM [%] | cell viability, 10000 nM [%]
BV-173 [24] | – | – | – | – | 89.5 | 94.1 | 105 | 112 | 81.8
HEL [17] | – | – | – | – | 109 | 92.8 | 94.3 | 92.7 | 95.5
HL-60 [13] | < 0.0301 | < 0.0301 | < 0.0301 | < 0.0301 | – | – | – | – | –
HL-60 [18] | – | – | – | – | 124 | 104 | 100 | 84.6 | 147
K-562 [15] | – | – | – | – | 95.2 | 101 | 96 | 103 | 90.4
KCL-22 [20] | – | – | – | – | 113 | 84 | 96 | 110 | 102
KG-1 [21] | – | – | – | – | 110 | 106 | 98 | 99.3 | 97.6
LAMA-84 [19] | – | – | – | – | 86.4 | 98.5 | 92.9 | 107 | 91.5
ML-2 [14] | – | – | – | – | 108 | 98.3 | 98.4 | 90.4 | 94.1
MV4-11 [23] | – | – | – | – | 86.9 | 82.1 | 102 | 95.3 | 92.2
Mono-Mac-6 [16] | – | – | – | – | 97.9 | 93.8 | 99.8 | 112 | 92.3
SHI-1 [22] | – | – | – | – | 120 | 95.3 | 99 | 94.2 | 94.3

Cn1cc(C[C@@H](N)C(=O)O)c2ccccc21 [Indoximod]
Conditions | IC50 (cell viability) [µM]
BV-173 [11] | > 10
HEL [4] | > 10
HL-60 [5] | > 10
K-562 [2] | > 10
KCL-22 [7] | > 10
KG-1 [8] | > 10
KU-812 | > 10
LAMA-84 [6] | > 10
ML-2 [1] | > 10
MOLM-13 | > 10
MV4-11 [10] | > 10
Mono-Mac-6 [3] | > 10
NOMO-1 | > 10
SHI-1 [9] | > 10
THP-1 | > 10

cell viability [%], HL-60 [12]
Conditions | 0.001 µM | 0.01 µM | 0.1 µM | 1 µM | 10 µM
co-treatment: AZD3965 100 nM | 89.7 | 96.1 | 104 | 106 | 101
co-treatment: DMSO vehicle | 100 | 98.7 | 112 | 110 | 96.7
co-treatment: GSK2194069 100 nM | 96.5 | 88.55 | 115 | 113 | 86.2
co-treatment: pictilisib 100 nM | 110 | 63.4 | 120 | 123 | 93.9

Conditions | area under dose-response curve, co-treatment: AZD3965 100 nM | area under dose-response curve, co-treatment: DMSO vehicle | area under dose-response curve, co-treatment: GSK2194069 100 nM | area under dose-response curve, co-treatment: pictilisib 100 nM | cell viability, 1 nM [%] | cell viability, 10 nM [%] | cell viability, 100 nM [%] | cell viability, 1000 nM [%] | cell viability, 10000 nM [%]
BV-173 [24] | – | – | – | – | 134 | 95.3 | 90.6 | 84.7 | 100
HEL [17] | – | – | – | – | 110 | 97.1 | 85.8 | 120 | 100
HL-60 [13] | < 0.0301 | < 0.0301 | < 0.0301 | < 0.0301 | – | – | – | – | –
HL-60 [18] | – | – | – | – | 102 | 90.2 | 116 | 97.3 | 106
K-562 [15] | – | – | – | – | 103 | 108 | 79.8 | 87.5 | 89.9
KCL-22 [20] | – | – | – | – | 109 | 86.8 | 82.5 | 106 | 101
KG-1 [21] | – | – | – | – | 107 | 99 | 102 | 99.2 | 97.6
LAMA-84 [19] | – | – | – | – | 94.5 | 97.2 | 91.1 | 113 | 94.7
ML-2 [14] | – | – | – | – | 97.8 | 97.2 | 100 | 106 | 92.9
MV4-11 [23] | – | – | – | – | 93.3 | 88.2 | 103 | 85.5 | 94.9
Mono-Mac-6 [16] | – | – | – | – | 104 | 102 | 92.9 | 97.7 | 91.8
SHI-1 [22] | – | – | – | – | 96 | 101 | 102 | 107 | 104
